Results published in patent US8952024B2, “Herbicidal pyrimidone derivatives” (E I du Pont de Nemours and Company, priority 2009, dated 2015).

Key:
Assay type in all cases: in vivo
[1] = test system: downy bromegrass (Bromus tectorum); assay: Test B pre-/postemergence plant response
Source text: (§1) Seeds of plant species selected from blackgrass (Alopecurus myosuroides), downy bromegrass (Bromus tectorum), green foxtail (Setaria viridis), Italian ryegrass (Lolium multiflorum), wheat (Triticum aestivum), wild oat (Avena fatua), deadnettle (henbit deadnettle, Lamium amplexicaule), galium (catchweed bedstraw, Galium aparine), bermudagrass (Cynodon dactylon), Surinam grass (Brachiaria decumbens), cocklebur (Xanthium strumarium), corn (Zea mays), large crabgrass (Digitaria sanguinalis), woolly cupgrass (Eriochloa villosa), giant foxtail (Setaria faberii), goosegrass (Eleusine indica), johnsongrass (Sorghum halepense), kochia (Kochia scoparia), lambsquarters (Chenopodium album), morningglory (Ipomoea coccinea), nightshade (eastern black nightshade, Solanum ptycanthum), yellow nutsedge (Cyperus esculentus), pigweed (Amaranthus retroflexus), ragweed (common ragweed, Ambrosia elatior), Russian thistle (Salsola kali), soybean (Glycine max), sunflower (common oilseed sunflower, Helianthus annuus) and velvetleaf (Abutilon theophrasti) were planted into a blend of loam soil and sand and treated preemergence with test compounds formulated in a non-phytotoxic solvent mixture which included a surfactant.
(§2) At the same time, plants selected from these crop and weed species and also winter barley (Hordeum vulgare), canarygrass (Phalaris minor), chickweed (Stellaria media) and windgrass (Apera spica-venti) were planted in pots containing Redi-Earth® planting medium (Scotts Company, 14111 Scottslawn Road, Marysville, Ohio 43041) comprising spaghnum peat moss, vermiculite, wetting agent and starter nutrients and treated with postemergence applications of some of the test chemicals formulated in the same manner. Plants ranged in height from 2 to 18 cm (1- to 4-leaf stage) for postemergence treatments.
(§3) Treated plants and controls were maintained in a greenhouse for 13 to 15 days, after which time all treated plants were visually evaluated and compared to controls. Plant response ratings, summarized in Table B, are based on a scale of 0 to 100 where 0 is no effect and 100 is complete control. A dash (-) response means no test result.

soybean (Glycine max) = assay: Test B pre-/postemergence plant response
Source text: as §1, §2, §3

[2] = test system: ragweed (common ragweed, Ambrosia elatior); assay: Test B pre-/postemergence plant response
Source text: as §1, §2, §3

[3] = test system: Italian ryegrass (Lolium multiflorum); assay: Test B pre-/postemergence plant response
Source text: as §1, §2, §3

[4] = test system: blackgrass (Alopecurus myosuroides); assay: Test B pre-/postemergence plant response
Source text: as §1, §2, §3

[5] = test system: velvetleaf (Abutilon theophrasti); assay: Test B pre-/postemergence plant response
Source text: as §1, §2, §3

[6] = test system: goosegrass (Eleusine indica); assay: Test B pre-/postemergence plant response
Source text: as §1, §2, §3

[7] = test system: canarygrass (Phalaris minor); assay: Test B postemergence plant response; conditions: Postemergence
Method in brief: (§4)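 Visual ratings from 0 (no effect) to 100 (complete control), made against controls 13–15 days after treatment, kept in a greenhouse. Compounds were applied postemergence to potted plants at the 1- to 4-leaf stage (2–18 cm).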

[8] = test system: winter barley (Hordeum vulgare); assay: Test B postemergence plant response; conditions: Postemergence
Method in brief: as §4

[9] = test system: chickweed (Stellaria media); assay: Test B postemergence plant response; conditions: Postemergence
Method in brief: as §4

[10] = Postemergence, 62 g ai/ha, scale 0 (no effect) to 100 (complete control), 13 to 15 days
[11] = Postemergence, 125 g ai/ha, visual rating after 13 to 15 days, scale 0 (no effect) to 100 (complete control)
[12] = Postemergence, 250 g ai/ha, scale 0 to 100
[13] = Preemergence, 31 g ai/ha, scale 0 to 100 (0 no effect, 100 complete control)
[14] = Preemergence, 62 g ai/ha, scale 0 to 100, 0 no effect, 100 complete control
[15] = Preemergence, 125 g ai/ha, 0 to 100 scale
[16] = 250 g ai/ha, Preemergence, 0 to 100 scale
[17] = Postemergence, 31 g ai/ha, scale 0 to 100 (0 no effect, 100 complete control)
[18] = 31 g ai/ha, scale 0 to 100 (0 no effect, 100 complete control)
[19] = 62 g ai/ha, scale 0 (no effect) to 100 (complete control), 13 to 15 days
[20] = 125 g ai/ha, visual rating after 13 to 15 days, scale 0 (no effect) to 100 (complete control)

5-[(2-hydroxy-6-oxo-1-cyclohexen-1-yl)carbonyl]-3-(2-methoxyethyl)-2-(3-thienyl)-4(3H)-pyrimidinone [Compound 97]
Plant response rating, Bromegrass, Downy [1, 10]: 0
Plant response rating, Bromegrass, Downy [1, 11]: 10
Bromegrass, Downy plant response rating [1, 12]: 20
Plant response rating, Bromegrass, Downy [1, 13]: 0
Plant response rating, Bromegrass, Downy [1, 14]: 0
Bromegrass, Downy plant response rating [1, 15]: 0
Plant response rating, Soybean (soybean (Glycine max); [16]): 75
Plant response rating, Soybean (soybean (Glycine max); [17]): 95
Plant response rating, Soybean (soybean (Glycine max); [10]): 95
Plant response rating, Soybean (soybean (Glycine max); [11]): 95
Soybean plant response rating (soybean (Glycine max); [12]): 98
Plant response rating, Soybean (soybean (Glycine max); [13]): 10
Plant response rating, Soybean (soybean (Glycine max); [14]): 60
Soybean plant response rating (soybean (Glycine max); [15]): 65
Plant response rating, Ragweed [2, 16]: 100
Plant response rating, Ragweed [2, 17]: 75
Plant response rating, Ragweed [2, 10]: 80
Plant response rating, Ragweed [2, 11]: 90
Ragweed plant response rating [2, 12]: 98
Plant response rating, Ragweed [2, 13]: 98
Plant response rating, Ragweed [2, 14]: 100
Ragweed plant response rating [2, 15]: 100
Plant response rating, Ryegrass, Italian [3, 16]: 0
Plant response rating, Ryegrass, Italian [3, 17]: 0
Plant response rating, Ryegrass, Italian [3, 10]: 0
Plant response rating, Ryegrass, Italian [3, 11]: 0
Ryegrass, Italian plant response rating [3, 12]: 20
Plant response rating, Ryegrass, Italian [3, 13]: 0
Plant response rating, Ryegrass, Italian [3, 14]: 0
Ryegrass, Italian plant response rating [3, 15]: 0
Plant response rating, Blackgrass [4, 16]: 20
Plant response rating, Blackgrass [4, 17]: 0
Plant response rating, Blackgrass [4, 10]: 0
Plant response rating, Blackgrass [4, 11]: 50
Blackgrass plant response rating [4, 12]: 50
Plant response rating, Blackgrass [4, 13]: 0
Plant response rating, Blackgrass [4, 14]: 0
Blackgrass plant response rating [4, 15]: 0
Plant response rating, Velvetleaf [5, 16]: 100
Plant response rating, Velvetleaf [5, 17]: 70
Plant response rating, Velvetleaf [5, 10]: 70
Plant response rating, Velvetleaf [5, 11]: 75
Velvetleaf plant response rating [5, 12]: 85
Plant response rating, Velvetleaf [5, 13]: 55
Plant response rating, Velvetleaf [5, 14]: 100
Velvetleaf plant response rating [5, 15]: 100
Plant response rating, Goosegrass [6, 16]: 98
Plant response rating, Goosegrass [6, 17]: 45
Plant response rating, Goosegrass [6, 10]: 75
Plant response rating, Goosegrass [6, 11]: 95
Goosegrass plant response rating [6, 12]: 98
Plant response rating, Goosegrass [6, 13]: 0
Goosegrass plant response rating [6, 15]: 95
Plant response rating, Canarygrass [7, 18]: 0
Plant response rating, Canarygrass [7, 19]: 0
Plant response rating, Canarygrass [7, 20]: 5
Canarygrass plant response rating ([7]; 250 g ai/ha, scale 0 to 100): 40
Plant response rating, Barley [8, 18]: 0
Plant response rating, Barley [8, 19]: 0
Plant response rating, Barley ([8]; 125 g ai/ha, scale 0 to 100 (0 no effect, 100 complete control), 13 to 15 days): 0
Barley plant response rating ([8]; 250 g ai/ha, scale 0 to 100): 5
Plant response rating, Chickweed [9, 18]: 90
Plant response rating, Chickweed [9, 19]: 95
Plant response rating, Chickweed [9, 20]: 95
Chickweed plant response rating ([9]; 250 g ai/ha, scale 0 to 100): 98
